Measured values from patent US9024018B2, “3-substituted-8-substituted-3H-imidazo[5,1-d][1,2,3,5]tetrazin-4-one compounds and their use” (Pharminox Limited, priority 2009, dated 2015).

Experiments:
Format in all cases: cell-based
SNB19V = experiment: MTT assay for 7-day toxicity, SNB19V glioma cells (vector control, MGMT-); details: Glioma cell, 168 h, 7 day MTT assay, glioma line SNB19V
Method: (§1) The cell culture techniques were carried out in a Class II microbiological safety cabinet which was swabbed with 70% IMS in distilled water before each use. Glioma cells were routinely cultured in Costar tissue culture flasks in RPMI 1640 liquid medium (containing 0.3 g/L L-glutamine and 2 g/L sodium bicarbonate) supplemented with 10% heat inactivated FBS (55-59° C.) for 1 hour to denature complement proteins which would otherwise evoke a cellular immune response resulting in cell lysis, 1% non-essential amino acids, 50 μg/mL gentamicin and 400 μg/mL G418 (vector selection reagent). Colorectal and melanoma cells were maintained in RPMI 1640 supplemented with 10% FBS. MRC-5 cells were cultured in EMEM+10% FBS, 1% pen/strep, 1% non-essential amino acids, 1% HEPES (1M) and 1% sodium bicarbonate.
(§2) Cells were grown at 37° C. in a humidified incubator in an atmosphere comprising 95% air/5% CO2. Cells were sub-cultured when growth exceeded approximately 80% confluence, normally twice weekly. The medium was aspirated from the flask and approximately 0.8 mL trypsin-EDTA 1× solution added. The cells were re-incubated at 37° C. until they had visibly detached from the flask. The cells were re-suspended in 5 mL medium and 0.5-1 mL was transferred to a new flask (25 cm^2) with 7 mL culture medium. The cells were further incubated at 37° C. To minimize phenotypic drift, cells were disposed of once they had been subcultured 30 times. New batches of cells were thawed rapidly in 37° C. water bath once taken from liquid nitrogen storage and re-suspended in 10 mL of culture medium in a 25 cm^2 flask. Cells were passaged twice to allow normal growth to resume prior to use in experiments.
(§3) Most test compounds, including temozolomide, were prepared as 100 mM stock solutions in DMSO and stored at −20° C. for not more than 6 months.
(§4) MTT Assay for 7-Day Toxicity Assay
(§5) This assay was first described in Mosmann, T., 1983, “Rapid colorimetric assay for cellular growth and survival: Application to proliferation and cytotoxicity assays”, Journal of Immunological Methods, Vol. 65, Nos. 1-2, pp. 55-63.
(§6) Glioma cell lines, SNB19 and U373, both stably transfected with MGMT (i.e., SNB19M and U373M) or their respective vector controls (i.e., SNB19V and U373V); colorectal carcinoma cell lines, HCT116, HT29, and DLD1; melanoma cell line, SKMEL-28; breast cell line, MCF-7; and normal human fetal lung fibroblast cell line, MRC-5; were used at 60-80% confluence, during the logarithmic phase of growth.
(§7) Following harvesting with trypsin/EDTA, cells in suspension were gently syringed through a 23 gauge needle to obtain a near-single cell suspension. Cells were then seeded into 96-well plates at the desired density in 180 μL culture medium if only one test compound was to be added, or in 160 μL if two test compounds were to be added in combination. Cells were allowed to attach overnight by incubation at 37° C. in 95% air/5% CO2. For the 7 day assay, the cell seeding densities for the different cell lines were as follows: SNB19V, SNB19M: 650 cells/well; U373V, U373M: 650 cells/well; SNB19VR, U373VR: 650 cells/well; HCT116, DLD-1, SKMEL-28, MRC-5, MCF-7: 400 cells/well.
(§8) The two peripheral lanes of each plate were used as blank wells (cell free) and filled with 200 μL of medium in order to minimise medium evaporation from the plate. A separate time zero (T0) plate was set up alongside other plates. Serial dilutions in tissue culture medium of a 100 mM stock of test compound were prepared immediately before each assay to ten times the final concentrations required. 20 μL was added to each well (200 μL total media per well) to achieve final concentrations of 0.5 μM, 1 μM, 5 μM, 10 μM, 50 μM, 100 μM, 500 μM, and 1000 μM. A minimum of four wells received the same test compound concentration. To control wells, including those in the T0 plate, 20 μL of medium was added. […]

SNB19M = experiment: MTT assay for 7-day toxicity, SNB19M glioma cells (stably transfected with MGMT, MGMT+); details: Glioma cell, 168 h, 7 day MTT assay, glioma line SNB19M
Method: as §1, §2, §3, §4, §5, §6, §7, §8

U373V = experiment: MTT assay for 7-day toxicity, U373V glioma cells (vector control, MGMT-); details: Glioma cell, 168 h, 7 day MTT assay, glioma line U373V
Method: as §1, §2, §3, §4, §5, §6, §7, §8

U373M = experiment: MTT assay for 7-day toxicity, U373M glioma cells (stably transfected with MGMT, MGMT+); details: 7 day MTT assay, glioma line U373M
Method: as §1, §2, §3, §4, §5, §6, §7, §8

Row | SMILES | GI50 (SNB19V) [µM] | GI50 (SNB19M) [µM] | GI50 (U373V) [µM] | GI50 (U373M; Glioma cell, 168 h) [µM] | GI50 (U373M) [µM]
1 | Cn1nnc2c(-c3nc(-c4ccc(Br)cc4)cs3)ncn2c1=O [WW-022, 8-(4-(4-Bromophenyl)thiazol-2-yl)-3-methylimidazo[5,1-d][1,2,3,5]tetrazin-4(3H)-one] | < 45 | < 70 | – | – | –
2 | COCn1nnc2c(-c3nc4ccccc4o3)ncn2c1=O [WW-057] | – | < 70 | – | – | –
3 | C#CCn1nnc2c(-c3nc(-c4cccs4)cn3C)ncn2c1=O [WW-053, 8-(1-Methyl-4-(thiophen-2-yl)-1H-imidazol-2-yl)-3-(prop-2-ynyl)imidazo[5,1-d][1,2,3,5]tetrazin-4(3H)-one] | < 45 | < 70 | – | – | –
4 | Cn1nnc2c(-c3nc4ccccc4n3C)ncn2c1=O [WW-066, 3-Methyl-8-(1-methyl-1H-benzo[d]imidazol-2-yl)imidazo[5,1-d][1,2,3,5]tetrazin-4(3H)-one] | < 45 | < 70 | – | – | –
5 | C[S+]([O-])Cn1nnc2c(-c3nc4ccccc4o3)ncn2c1=O (centres unmarked) [WW-056, 8-(Benzo[d]oxazol-2-yl)-3-(methylsulfinylmethyl)imidazo[5,1-d][1,2,3,5]tetrazin-4(3H)-one] | < 45 | < 70 | – | – | –
6 | COCn1nnc2c(-c3nc(-c4ccsc4)cs3)ncn2c1=O [WW-017] | < 45 | < 70 | – | – | –
7 | COCn1nnc2c(-c3nnc(NCc4ccccc4)o3)ncn2c1=O [WW-046, 8-(5-(Benzylamino)-1,3,4-oxadiazol-2-yl)-3-(methoxymethyl)imidazo[5,1-d][1,2,3,5]tetrazin-4(3H)-one] | – | < 70 | < 75 | < 60 | –
8 | COCn1nnc2c(-c3nc(-c4ccccc4)cs3)ncn2c1=O [WW-016, 3-(Methoxymethyl)-8-(4-phenylthiazol-2-yl)imidazo[5,1-d][1,2,3,5]tetrazin-4(3H)-one] | – | < 70 | < 75 | < 60 | –
9 | Cn1nnc2c(-c3nnc(Nc4ccccc4)o3)ncn2c1=O [WW-044, 3-Methyl-8-(5-(phenylamino)-1,3,4-oxadiazol-2-yl)imidazo[5,1-d][1,2,3,5]tetrazin-4(3H)-one] | – | – | < 75 | – | –
10 | COCn1nnc2c(-c3nc(-c4cccs4)cs3)ncn2c1=O [WW-018, 3-(Methoxymethyl)-8-(4-(thiophen-2-yl)thiazol-2-yl)imidazo[5,1-d][1,2,3, 5]tetrazin-4(3H)-one] | < 45 | < 70 | – | – | –
11 | COCn1nnc2c(-c3ncc(-c4ccc(Br)cc4)o3)ncn2c1=O [WW-039] | – | < 70 | < 75 | < 60 | –
12 | COCn1nnc2c(-c3nc(-c4ccncc4)cs3)ncn2c1=O [WW-019, 3-(Methoxymethyl)-8-(4-(pyridin-4-yl)thiazol-2-yl)imidazo[5,1-d][1,2,3,5]tetrazin-4(3H)-one] | < 45 | < 70 | – | – | –
13 | CSCn1nnc2c(-c3nc(-c4cccs4)cs3)ncn2c1=O [WW-034, 3-(methylthiomethyl)-8-(4-(thiophen-2-yl)thiazol-2-yl)imidazo[5,1-d][1,2,3,5]tetrazin-4(3H)-one] | – | < 70 | < 75 | < 60 | –
14 | Cn1nnc2c(-c3nc(-c4nccs4)cs3)ncn2c1=O [WW-010, 8-(2,4′-Bithiazol-2′-yl)-3-methylimidazo[5,1-d][1,2,3,5]tetrazin-4(3H)-one] | < 45 | < 70 | – | – | –
15 | C[S+]([O-])Cn1nnc2c(-c3nc4ccccc4s3)ncn2c1=O (centres unmarked) [WW-061, 8-(Benzo[d]thiazol-2-yl)-3-(methylsulfinylmethyl)imidazo[5,1-d][1,2,3,5]tetrazin-4(3H)-one] | < 45 | < 70 | – | – | –
16 | COCn1nnc2c(-c3nc4ccccc4s3)ncn2c1=O [WW-060, 8-(Benzo[d]thiazol-2-yl)-3-(methoxymethyl)imidazo[5,1-d][1,2,3,5]tetrazin-4(3H)-one] | < 45 | < 70 | – | – | –
17 | C#CCn1nnc2c(-c3nc4ccccc4s3)ncn2c1=O [WW-059, 8-(Benzo[d]thiazol-2-yl)-3-(prop-2-ynyl)imidazo[5,1-d][1,2,3, 5]tetrazin-4(3H)-one] | < 45 | < 70 | – | – | –
18 | CNc1nnc(-c2ncn3c(=O)n(C)nnc23)o1 [WW-045, 3-Methyl-8-(5-(methylamino)-1,3,4-oxadiazol-2-yl)imidazo[5,1-d][1,2,3,5]tetrazin-4(3H)-one] | < 45 | – | < 75 | – | –
19 | C[S+]([O-])Cn1nnc2c(-c3nnc(-c4ccccc4)o3)ncn2c1=O (centres unmarked) [WW-043, 3-(Methylsulfinylmethyl)-8-(5-phenyl-1,3,4-oxadiazol-2-yl)imidazo[5,1-d][1,2,3,5]tetrazin-4(3H)-one] | < 45 | < 70 | – | – | –
20 | COCn1nnc2c(-c3nc(C(C)(C)C)cs3)ncn2c1=O [WW-014, 8-(4-tert-Butylthiazol-2-yl)-3-(methoxymethyl)imidazo[5,1-d][1,2,3,5]tetrazin-4(3H)-one] | – | < 70 | < 75 | < 60 | –
21 | C#CCn1nnc2c(-c3nc(-c4ccc(Br)cc4)cs3)ncn2c1=O [WW-021] | – | < 70 | < 75 | < 60 | –
22 | COCn1nnc2c(-c3nc4ccccc4[nH]3)ncn2c1=O [WW-064, 8-(1H-Benzo[d]imidazol-2-yl)-3-(methoxymethyl)imidazo[5,1-d][1,2,3,5]tetrazin-4(3H)-one] | < 45 | < 70 | – | – | –
23 | C#CCn1nnc2c(-c3nc4ccccc4n3C)ncn2c1=O [WW-065, 8-(1-Methyl-1H-benzo[d]imidazol-2-yl)-3-(prop-2-ynyl)imidazo[5,1-d][1,2,3,5]tetrazin-4(3H)-one] | < 45 | < 70 | – | – | –
24 | C#CCn1nnc2c(-c3nc(C(C)(C)C)cs3)ncn2c1=O [WW-020, 8-(4-tert-Butylthiazol-2-yl)-3-(prop-2-ynyl)imidazo[5,1-d][1,2,3,5]tetrazin-4(3H)-one] | – | < 70 | – | – | –
25 | Cn1nnc2c(-c3nc(-c4ccncc4)cs3)ncn2c1=O [WW-013] | – | < 70 | < 75 | < 60 | –
26 | COCn1nnc2c(-c3nc(-c4ccc(S(C)(=O)=O)cc4)cs3)ncn2c1=O [WW-027, 3-(Methoxymethyl)-8-(4-(4-(methylsulfonyl)phenyl)thiazol-2-yl)imidazo[5,1-d][1,2,3,5]tetrazin-4(3H)-one] | – | – | – | < 60 | 33.1
27 | Cn1nnc2c(-c3nc(-c4cccs4)cs3)ncn2c1=O [WW-011, 3-Methyl-8-(4-(thiophen-2-yl)thiazol-2-yl)imidazo[5,1-d][1,2,3,5]tetrazin-4(3H)-one] | < 45 | < 70 | < 75 | – | –
28 | Cn1nnc2c(C(=O)NO)ncn2c1=O [RR-001, N-Hydroxy-3-methyl-4-oxo-3,4-dihydroimidazo[5,1-d][1,2,3,5]tetrazine-8-carboxamide] | 41 | 87.1 | – | – | –
29 | Cn1nnc2c(-c3nnc(-c4ccccc4)o3)ncn2c1=O [WW-041, 3-Methyl-8-(5-phenyl-1,3,4-oxadiazol-2-yl)imidazo[5,1-d][1,2,3,5]tetrazin-4(3H)-one] | < 45 | – | < 75 | – | –
30 | Cn1nnc2c(-c3nc4ccccc4o3)ncn2c1=O [WW-054, 8-(Benzo[d]oxazol-2-yl)-3-methylimidazo[5,1-d][1,2,3,5]tetrazin-4(3H)-one] | < 45 | – | < 75 | – | –
